{"source": "patent US11390621B2", "about": "“Chiral indole compounds and their use” (ARIAGEN, INC., priority 2019, dated 2022)", "key": {"[1]": {"test": "In vivo pharmacokinetic studies in rats", "set-up": "species or system SD rats", "details": "rats; for AUC(0-t): read-out: AUClast; for Tmax: read-out: Tmax", "protocol": "This example describes pharmacokinetic (PK) studies of ARI-164, ARI-165, ARI-186, ARI-224, and ARI-226 in mice and rats. In the present studies, the test compounds were given to groups of mice and/or rats (N=3 in each group), intravenously (IV) at 2 mg/kg or orally (PO) at 10, 30, or 40 mg/kg. ARI-186, ARI-224 and ARI-226 were given orally to rats QD for 5 days at 10 mg/kg to assess whether decreased susceptibility to CYP1A1/1A2 metabolism would lead to increased accumulation. IV doses were formulated in DMSO, while PO doses were formulated in a 50/50 mixture of PEG400 and Tween 80 (single dose mouse and rat studies for ARI-164, ARI-165, ARI-186, ARI-224, ARI-226) or PEG400/Kolliphor HS15/Oleic Acid 45/45/10 (ARI-164 repeat dose rat study). Blood samples were collected at pre-dose and over a period of 24 hours post-dose. Plasma concentrations of the test compounds were determined by HPLC."}, "[2]": {"system": "EMT-6 cancer cells", "test": "EMT-6 subcutaneous syngeneic mouse tumor model (Example 48)", "type": "in vivo, BALB/C mice", "details": "40 mg/kg, IP", "protocol": "This example describes in vivo studies that evaluated the anti-cancer efficacy of ARI-143, ARI-164, ARI-165, and ARI-186 in syngeneic mouse tumor models. Mice implanted subcutaneously with EMT-6 or Pan02 cancer cells were treated with ARI-143, ARI-164, ARI-165, ARI-186, or vehicle controls, as described below.\nA monolayer culture of tumor cells was maintained in vitro in DMEM or RPMI1640 medium supplemented with 10% fetal bovine serum at 37° C. in an atmosphere of 5% CO2. Cells in exponential growth phase were harvested and quantitated by cell counter before tumor inoculation. The cell lines used are described in the table below.\nTwo subcutaneous syngeneic mouse tumor models were generated by innoculating female BALB/C or C57BL/6 mice with cancer cells at their right lower or front flank as detailed in the table below:\nEach mouse was inoculated subcutaneously with tumor cells in 0.1 mL of PBS. Treatments were started when the mean tumor size reached approximately 80-120 mm^3 (around 100 mm^3). The administration of the test compounds and the animal number in each study group are shown in the study design. The date of tumor cell inoculation was denoted as day 0.\nARI-143, ARI-164, and ARI-165 were dissolved in DMSO at the final concentration of 26.7 mg/ml and stored at room temperature. In Pan02 studies of ARI-164 and ARI-186, both compounds were dissolved in 100% PEG400.\nRandomization of animals was started when the mean tumor size reached approximately 90 mm^3 to form the mouse study groups. The randomization was-performed based on “Matched distribution” method using the multi-task method (StudyDirector™ software, version 3.1.399.19)/randomized block design. The mouse groups (ten in each group) were treated with vehicle (DMSO or PEG400) or the test compounds at a dose of 26-80 mg/kg by intraperitoneal (i.p.). injection, QD for 28 days or longer.\nAfter tumor cell inoculation, the mice were checked daily for morbidity and mortality. During routine monitoring, the mice were checked for tumor growth and any effects of the treatment on behavior such as mobility, food and water consumption, body weight gain/loss (body weights were measured twice per week after randomization), eye/hair matting, and any other abnormalities. Mortality and observed clinical signs were recorded for individual mice in detail.\nTumor volumes were measured twice per week in two dimensions using a caliper, and the volume was expressed in mm^3 using the formula: V=(L×W×W)/2, where V is tumor volume, L is tumor length (the longest tumor dimension) and W is tumor width (the longest tumor dimension perpendicular to L). Dosing as well as tumor and body weight measurements was conducted in a Laminar Flow Cabinet. The body weights and tumor volumes were measured by using StudyDirector™ software (version 3.1.399.19). Dosing Holiday\nTumor growth inhibition percentage (TGI %) is an indicator for antitumor activity of a drug compound, and expressed as: TGI(%)=100×(1−T/C), where T and C are the mean tumor volume (or weight) of the treated and control groups, respectively, on a given day. Statistical analysis of the difference in mean tumor volume (MTV) among the groups was conducted using the data collected on the day when the MTV of the vehicle group reached the humane endpoints, so that TGI could be derived for all or most mice enrolled in the study."}, "[3]": {"details": "SD, rat, plasma, iv, 2 mg/kg, single 2 mg/kg IV dose, Mean of 3 animals"}, "[4]": {"details": "SD, rat, plasma, iv, 2 mg/kg, single 2 mg/kg IV dose, individual animal"}, "[5]": {"details": "Sprague-Dawley (SD), rat, plasma, iv, 2 mg/kg, single 2 mg/kg IV dose, Mean of 3 animals"}, "[6]": {"details": "Sprague-Dawley (SD), rat, plasma, po, 10 mg/kg, single 10 mg/kg PO dose, Mean of 3 animals"}, "[7]": {"details": "Sprague-Dawley (SD), rat, plasma, po, 10 mg/kg, single 10 mg/kg PO dose, individual animal"}, "[8]": {"details": "single 2 mg/kg IV dose, individual animal, 2 mg/kg"}, "[9]": {"details": "single 10 mg/kg PO dose, individual animal, 10 mg/kg"}}, "note": "Several values for one entry are separate records, joined by “and”; a condition that tells them apart may be missing. Identical values can stand only once. Like-named read-outs stand apart in the source and are kept apart here.", "data": [{"smiles": "CC[C@@H](O)c1csc(C(=O)c2c[nH]c3cc(F)ccc23)n1", "note": "[ARI-165, (R)-(6-Fluoro-1H-indol-3-yl)(4-(1-hydroxypropyl)thiazol-2-yl)methanone]", "values": [{"measurement": "AUC(0-inf)", "setting": "[1]; [3]", "result": 12800, "unit": "ng·h/mL"}, {"measurement": "clearance", "setting": "[1]; [3]", "result": 5.38, "unit": "mL/min/kg"}, {"measurement": "AUC(0-t)", "setting": "[1]; [3]", "result": 12600, "unit": "ng·h/mL"}, {"measurement": "MRT inf", "setting": "[1]; [4]", "result": 0.81, "unit": "h"}, {"measurement": "MRT last", "setting": "[1]; [4]", "result": 0.79, "unit": "h"}, {"measurement": "Tmax", "setting": "[1]; [4]", "result": 0.083, "unit": "h"}, {"measurement": "MRT inf", "setting": "[1]; [5]", "result": 1.11, "unit": "h"}, {"measurement": "MRT last", "setting": "[1]; [5]", "result": 0.959, "unit": "h"}, {"measurement": "half-life", "setting": "[1]; [5]", "result": 1.33, "unit": "h"}, {"measurement": "Cmax", "setting": "[1]; Sprague-Dawley (SD), rat, plasma, iv, 2 mg/kg, single 2 mg/kg IV dose, Mean of 3 animals, read-out: Cmax", "result": 19200, "unit": "ng/mL"}, {"measurement": "Tmax", "setting": "[1]; [5]", "result": 0.083, "unit": "h"}, {"measurement": "Vd", "setting": "[1]; Sprague-Dawley (SD), rat, plasma, iv, 2 mg/kg, single 2 mg/kg IV dose, Mean of 3 animals, read-out: Vss", "result": 0.32, "unit": "L/kg"}, {"measurement": "AUC(0-inf)", "setting": "[1]; [6]", "result": 4310, "unit": "ng·h/mL"}, {"measurement": "MRT inf", "setting": "[1]; [6]", "result": 3.08, "unit": "h"}, {"measurement": "MRT last", "setting": "[1]; [6]", "result": 2.82, "unit": "h"}, {"measurement": "half-life", "setting": "[1]; [6]", "result": 1.09, "unit": "h"}, {"measurement": "AUC(0-t)", "setting": "[1]; [6]", "result": 4160, "unit": "ng·h/mL"}, {"measurement": "Cmax", "setting": "[1]; Sprague-Dawley (SD), rat, plasma, po, 10 mg/kg, single 10 mg/kg PO dose, Mean of 3 animals, read-out: Cmax", "result": 1120, "unit": "ng/mL"}, {"measurement": "Tmax", "setting": "[1]; [6]", "result": 2, "unit": "h"}, {"measurement": "AUC(0-inf)", "setting": "[1]; [7]", "result": 4680, "unit": "ng·h/mL"}, {"measurement": "MRT inf", "setting": "[1]; [7]", "result": 3.41, "unit": "h"}, {"measurement": "MRT last", "setting": "[1]; [7]", "result": 2.71, "unit": "h"}, {"measurement": "AUC(0-t)", "setting": "[1]; [7]", "result": 4260, "unit": "ng·h/mL"}, {"measurement": "Cmax", "setting": "[1]; Sprague-Dawley (SD), rat, plasma, po, 10 mg/kg, single 10 mg/kg PO dose, individual animal, read-out: Cmax", "result": 1250, "unit": "ng/mL"}, {"measurement": "Tmax", "setting": "[1]; [7]", "result": 2, "unit": "h"}, {"measurement": "bioavailability", "setting": "[1]; Sprague-Dawley (SD), rat, plasma, 10 mg/kg PO vs 2 mg/kg IV, read-out: F (Bioavailability)", "result": 6.73, "unit": "%"}, {"measurement": "AUCinf", "setting": "[1]; [8]", "result": "19500 ng·h/mL and 16300 ng·h/mL and 2690 ng·h/mL"}, {"measurement": "AUClast", "setting": "[1]; [8]", "result": "19500 ng·h/mL and 15700 ng·h/mL and 2620 ng·h/mL"}, {"measurement": "Cl", "setting": "[1]; [8]", "result": "1.72 mL/min/kg and 2.05 mL/min/kg and 12.4 mL/min/kg"}, {"measurement": "Cmax", "setting": "[1]; [8]", "result": "36500 ng/mL and 17100 ng/mL and 3880 ng/mL"}, {"measurement": "MRTinf", "setting": "[1]; [8]", "result": "1.61 h and 0.91 h"}, {"measurement": "MRTlast", "setting": "[1]; [8]", "result": "1.28 h and 0.8 h"}, {"measurement": "T1/2", "setting": "[1]; [8]", "result": "1.07 h and 2.11 h and 0.83 h"}, {"measurement": "Vss", "setting": "[1]; [8]", "result": "0.0832 L/kg and 0.198 L/kg and 0.677 L/kg"}, {"measurement": "AUCinf", "setting": "[1]; [9]", "result": "4650 ng·h/mL and 3620 ng·h/mL"}, {"measurement": "AUClast", "setting": "[1]; [9]", "result": "4640 ng·h/mL and 3560 ng·h/mL"}, {"measurement": "Cmax", "setting": "[1]; [9]", "result": "1070 ng/mL and 1040 ng/mL"}, {"measurement": "MRTinf", "setting": "[1]; [9]", "result": "3.12 h and 2.71 h"}, {"measurement": "MRTlast", "setting": "[1]; [9]", "result": "3.12 h and 2.64 h"}, {"measurement": "T1/2", "setting": "[1]; [9]", "result": "1.87 h and 0.541 h and 0.87 h"}, {"measurement": "TGI", "setting": "[2]; study day 6", "result": 0.0, "unit": "%"}, {"measurement": "TGI", "setting": "[2]; study day 10", "result": "−7.9", "unit": "%"}, {"measurement": "TGI", "setting": "[2]; study day 13", "result": "−8.6", "unit": "%"}, {"measurement": "TGI", "setting": "[2]; study day 17", "result": 14.5, "unit": "%"}, {"measurement": "TGI", "setting": "[2]; study day 20", "result": 23.1, "unit": "%"}, {"measurement": "TGI", "setting": "[2]; study day 24", "result": 25.8, "unit": "%"}, {"measurement": "TGI", "setting": "[2]; study day 27", "result": 12.5, "unit": "%"}, {"measurement": "TGI", "setting": "[2]; study day 31", "result": 9.1, "unit": "%"}]}]}
